# Test results published in patent publication US20080194506A1, “Oligodeoxyribonuleotides of 4000-10000 Dalton for Treating” (Gentium SPA, priority 2005, published 2008).
# Experiments:
# [1] = test system: human microvascular endothelial cells; experiment: In vitro angiogenesis assay: microvascular endothelial cells vascularizing through a layer of dermal fibroblasts; assay type: cell-based
# Method: The aortic ring assay investigates macrovascular endothelial cells. But often, the tumor vasculature consists of microvascular endothelial cells. Therefore, a third in vitro angiogenesis assay was performed on the basis of microvascular endothelial cells vascularizing through a layer of dermal fibroblasts after 9-11 days of culture. These vessel-like structures can subsequently be visualized by staining for CD31 and vWF.
# serum VEGF = experiment: Serum VEGF levels in patients after allogeneic stem cell transplantation; assay type: in vivo, human; conditions: cohort of 17 treated patients after allogeneic SCT
# human gastric carcinoma = experiment: Dorsal skin chamber assay, human gastric carcinoma mouse model (Xenograft system); assay type: in vivo; conditions: treated vs control tumors; first data
# Excerpt: We are currently performing a dorsal skin chamber assay (14) that investigates the effect of defibrotide in a highly vascularized human gastric carcinoma mouse model (Xenograft system). […] This set of experiments will be reproduced in due time.
# [2] = test system: rat aorta endothelial cells; experiment: Aortic ring assay: sprouting of rat aorta endothelial cells in Matrigel; assay type: cell-based; conditions: applied on a daily basis, FIG. 2
# [3] = test system: human umbilical vene (HUVEC) endothelial cells; experiment: Matrigel tube formation assay of HUVEC; assay type: cell-based; conditions: single addition, 10 μg/mL, 7 days, FIG. 1A
# Method: (§1) The Matrigel™ assay is one of the most popular and widely used in vitro angiogenesis assays (22). Matrigel™ is a semisolid synthetic mixture of extracellular matrix proteins which simulate the matrix that physiologically exist beneath the endothelial cell wall of a blood vessel. When the cells of question are seeded onto this matrix in microscopic chamber slides, they are activated to form tubular structures in 3-7 days, but only in the case that they have an endothelial phenotype. Therefore, this assay is suitable to show the potential capacity of cells to give rise to a tumor vasculature.
# (§2) TuDC-ELC and mature, differentiated endothelial cells, [human umbilical vene (HUVEC) or microvascular endothelial cells (HMEC) as “stable” controls] were incubated in the presence or absence of oligotide or Defibrotide (10 μg/mL each) for 7 days.
# [4] = test system: transdifferentiating ELC (TuDC-ELC); experiment: Matrigel tube formation assay of TuDC-ELC; assay type: cell-based, human
# Excerpt: We have recently developed a model for an alternative pathway of tumor angiogenesis. […] These endothelial-like cells (ELC) can transdifferentiate from tumor-associated dendritic cells under specific culture conditions (11). Briefly, monocytes are elutriated from leukapheresis products of healthy human blood donors and cultured in the presence of granulocyte-macrophage-colony stimulating factor (GM-CSF) and interleukin 4 (IL-4) to stimulate the differentiation of dendritic cells (DC). In addition, cells are treated with a cocktail specifically released by tumor cells (M-CSF, IL.6 and lactate, Gottfried et al., manuscript submitted) to promote the outgrowth of tumor-associated dendritic cells (TuDC).
# These TuDC-ELC acquire the phenotype of endothelial cells (FactorVIII related Ag, vWF) while they lose monocytic (CD14) and dendritic cell markers (CD1a). […] In addition, they are able to form tube-like structures in Matrigel™, an in vitro assay of angiogenesis.
# The Matrigel™ assay is one of the most popular and widely used in vitro angiogenesis assays (22). […]
# By the help of a complimentary software from the NIH (Image J, http://rsb.info.nih.gov/ij/), we are able to quantify these effects, the total length of tubes and the area of the photograph are assessed, the microvascular density (MVD) is then given in total length/area [pix-1].
# [5] = test system: microvascular endothelial cells (HMEC); experiment: Matrigel tube formation assay of HMEC; assay type: cell-based, human; conditions: single addition, 10 μg/mL, 7 days, FIG. 1A
# Method: as §1, §2
# [6] = test system: activated p70S6 kinase (p-p70S6); experiment: Western Blot analyses of activated p70S6 kinase; assay type: cell-based; conditions: preliminary evidence
substance,measurement,setting,value
defibrotide,angiogenesis of human microvascular endothelial cells,"[1]; daily application, 9-11 days of culture, FIGS. 3A and B",can also block angiogenesis
same,most effective concentration for blocking angiogenesis,"[1]; human microvascular endothelial cells, FIGS. 3A and B",around 10 μg/mL
same,angiogenesis of human microvascular endothelial cells,[1]; single application,could not significantly block angiogenesis
same,serum VEGF levels,serum VEGF,striking decline
same,microvascular density (MVD) of tumors,human gastric carcinoma,lower than that of control tumors
same,prevention of sprouting of rat aorta endothelial cells in Matrigel,[2],~100%
same,tube formation potential of HUVEC,[3],not affected
same,tube formation of transdifferentiating ELC (TuDC-ELC) in Matrigel,"[4]; 10 μg/mL, 7 days, clinical and subclinical concentrations",can inhibit tube formation
same,"microvascular density (MVD) of TuDC-ELC, total length/area","[4]; Image J quantification, p=0.02 TTEST, FIG. 1B","significantly (p=0.02, TTEST) downregulates MVD"
same,tube formation potential of HMEC,[5],not affected
same,effect on activated p70S6 kinase (p-p70S6),[6],downregulating effect
